Each block holds one compound with its values, some of them ahead of it.
Columns and labels:
Experiment in all cases: competitive isoTOP-ABPP
Format in all cases: binding
[1] = molecular target: T1, UBA2 SUMO-activating enzyme subunit 2 (Homo sapiens, UniProt Q9UBT2); details: 50 uM, in vitro
T1 construct: endogenous in cells; host or cells: MDA-MB-231 (soluble fraction of lysate)
T1 sequence (Q9UBT2 1-640): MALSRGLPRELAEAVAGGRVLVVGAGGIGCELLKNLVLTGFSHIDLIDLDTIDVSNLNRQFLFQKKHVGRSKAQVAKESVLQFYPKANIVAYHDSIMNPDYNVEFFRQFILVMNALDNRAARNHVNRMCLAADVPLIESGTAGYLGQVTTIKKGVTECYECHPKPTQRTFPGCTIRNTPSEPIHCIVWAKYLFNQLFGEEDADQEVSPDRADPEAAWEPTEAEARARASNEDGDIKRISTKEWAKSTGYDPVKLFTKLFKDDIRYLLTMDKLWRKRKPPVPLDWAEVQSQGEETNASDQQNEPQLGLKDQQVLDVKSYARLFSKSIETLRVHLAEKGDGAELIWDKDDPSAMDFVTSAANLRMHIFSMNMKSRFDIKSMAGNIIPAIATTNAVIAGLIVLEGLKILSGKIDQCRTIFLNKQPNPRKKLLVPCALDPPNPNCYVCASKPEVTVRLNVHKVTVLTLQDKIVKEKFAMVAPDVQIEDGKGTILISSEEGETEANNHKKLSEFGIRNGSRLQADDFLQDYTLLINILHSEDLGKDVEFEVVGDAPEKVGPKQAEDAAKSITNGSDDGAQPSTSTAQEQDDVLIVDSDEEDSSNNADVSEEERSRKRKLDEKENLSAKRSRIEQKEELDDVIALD
T1 sequence (Q9UBE0 1-346 partner): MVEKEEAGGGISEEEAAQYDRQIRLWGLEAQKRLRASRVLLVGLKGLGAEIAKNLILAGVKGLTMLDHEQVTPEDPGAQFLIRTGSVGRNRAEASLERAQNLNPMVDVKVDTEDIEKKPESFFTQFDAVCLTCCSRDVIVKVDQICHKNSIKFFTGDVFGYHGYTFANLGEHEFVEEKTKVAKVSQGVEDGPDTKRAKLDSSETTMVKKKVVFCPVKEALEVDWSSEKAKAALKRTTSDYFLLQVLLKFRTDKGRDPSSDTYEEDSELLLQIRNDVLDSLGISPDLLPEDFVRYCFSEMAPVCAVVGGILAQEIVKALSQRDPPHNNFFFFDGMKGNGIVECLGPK
Method in brief: (§1)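 Competition format: fragment (50 μM activated ester, 100 μM guanidinylating agent) versus vehicle in lysate, then lysine probe STP-alkyne at 0.1 mM for 1 h. Quantitation by light/heavy TEV-tag MS1 peak areas, reported as R.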

[2] = molecular target: T2, PTGR1 Prostaglandin reductase 1 (Homo sapiens, UniProt Q14914)
T2 construct: isoTOP-ABPP experiments performed in cell lysates (in vitro); endogenous in cells; host or cells: soluble proteome of human cancer cell lines (MDA-MB-231; Ramos and Jurkat also prepared)
T2 sequence (Q14914 whole entry): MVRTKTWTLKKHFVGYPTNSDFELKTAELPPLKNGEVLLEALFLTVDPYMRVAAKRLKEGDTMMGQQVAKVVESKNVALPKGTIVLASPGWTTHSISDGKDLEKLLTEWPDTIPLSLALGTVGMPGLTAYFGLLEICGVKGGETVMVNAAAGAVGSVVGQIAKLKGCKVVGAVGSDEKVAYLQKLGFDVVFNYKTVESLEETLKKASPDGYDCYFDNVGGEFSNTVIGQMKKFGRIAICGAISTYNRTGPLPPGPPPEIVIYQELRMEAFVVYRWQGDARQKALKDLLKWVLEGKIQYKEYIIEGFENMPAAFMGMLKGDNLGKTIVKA
Method in brief: as §1

[3] = molecular target: T3, MAP4K5 Mitogen-activated protein kinase kinase kinase kinase 5 (Homo sapiens, UniProt Q9Y4K4); details: 50 uM, 231 sol, in vitro
T3 construct: endogenous in cells; host or cells: MDA-MB-231 (soluble fraction of lysate)
T3 sequence (Q9Y4K4 whole entry): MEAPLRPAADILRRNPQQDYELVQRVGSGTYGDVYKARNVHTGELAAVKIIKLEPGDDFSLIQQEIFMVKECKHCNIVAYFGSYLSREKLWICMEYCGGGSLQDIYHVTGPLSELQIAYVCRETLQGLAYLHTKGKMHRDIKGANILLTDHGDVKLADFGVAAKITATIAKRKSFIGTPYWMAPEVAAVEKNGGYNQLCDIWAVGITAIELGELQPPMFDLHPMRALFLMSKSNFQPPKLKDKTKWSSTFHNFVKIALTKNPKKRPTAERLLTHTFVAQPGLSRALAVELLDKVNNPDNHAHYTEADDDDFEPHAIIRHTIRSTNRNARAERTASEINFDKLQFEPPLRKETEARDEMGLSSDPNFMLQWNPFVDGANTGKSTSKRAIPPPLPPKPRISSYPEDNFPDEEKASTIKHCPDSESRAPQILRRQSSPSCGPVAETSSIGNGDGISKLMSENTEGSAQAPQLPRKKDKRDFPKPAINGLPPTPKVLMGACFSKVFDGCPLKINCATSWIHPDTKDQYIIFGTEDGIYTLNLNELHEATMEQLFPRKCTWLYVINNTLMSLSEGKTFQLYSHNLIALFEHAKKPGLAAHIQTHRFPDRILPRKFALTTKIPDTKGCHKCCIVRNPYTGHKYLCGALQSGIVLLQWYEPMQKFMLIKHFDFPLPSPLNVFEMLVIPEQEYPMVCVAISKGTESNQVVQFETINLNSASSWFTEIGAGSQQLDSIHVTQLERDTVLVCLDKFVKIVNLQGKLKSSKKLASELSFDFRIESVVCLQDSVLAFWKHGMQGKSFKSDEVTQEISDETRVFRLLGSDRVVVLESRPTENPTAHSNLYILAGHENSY
Method in brief: as §1

F3 Tissue factor = molecular target: T4, F3 Tissue factor (Homo sapiens, UniProt P13726); details: for isoTOP-ABPP ratio (R) at liganded lysine P13726_K279: 50 uM, in vitro, sol, 231
T4 construct: isoTOP-ABPP experiments performed in cell lysates (in vitro); endogenous in cells; host or cells: soluble proteome of human cancer cell lines (MDA-MB-231; Ramos and Jurkat also prepared)
T4 sequence (P13726 33-295): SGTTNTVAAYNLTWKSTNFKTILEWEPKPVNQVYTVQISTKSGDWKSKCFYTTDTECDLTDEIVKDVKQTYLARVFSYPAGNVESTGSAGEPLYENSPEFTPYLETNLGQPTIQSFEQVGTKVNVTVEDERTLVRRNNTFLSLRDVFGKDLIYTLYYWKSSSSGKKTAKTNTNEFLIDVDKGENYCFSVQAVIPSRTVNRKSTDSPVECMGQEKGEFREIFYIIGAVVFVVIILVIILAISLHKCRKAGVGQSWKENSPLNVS
Method in brief: as §1

R value (DMSO/fragment) for probe 1 labeling ([1]; Q9UBT2_K409, 231 sol): 4.1 | R value (DMSO/fragment) for probe 1 labeling ([2]; Q14914_K194, 50 uM, 231 sol, in vitro): 1.6
SMILES: O=C(Oc1c(F)c(F)c(F)c(F)c1F)C(c1ccccc1)c1ccccc1 [fragment 20, Pentafluorophenyl 2,2-diphenylacetate]

R value (DMSO/fragment) for probe 1 labeling ([3]; Q9Y4K4_K49): 0.6
SMILES: O=C(Oc1c(F)c(F)c(F)c(F)c1F)c1cc(C(F)(F)F)cc(C(F)(F)F)c1 [fragment 21, Pentafluorophenyl 3,5-bis(trifluoromethyl)benzoate]

SMILES: O=C(CCc1cn(-c2ccccc2)nc1-c1ccccc1)Oc1ccc([N+](=O)[O-])cc1[N+](=O)[O-] [fragment 29, 2,4-Dinitrophenyl 3-(1,3-diphenyl-1H-pyrazol-4-yl)propanoate]
isoTOP-ABPP reactivity ratio at lysine Q9Y4K4_K49 [3]: 1.8

SMILES: O=C(Oc1ccc([N+](=O)[O-])cc1[N+](=O)[O-])C(c1ccccc1)c1ccccc1 [fragment 30, 2,4-Dinitrophenyl 2,2-diphenylacetate]
isoTOP-ABPP reactivity ratio at lysine Q9UBT2_K409 ([1]; 231 sol): 7.3

SMILES: O=C(Oc1ccc([N+](=O)[O-])cc1[N+](=O)[O-])c1cc(C(F)(F)F)cc(C(F)(F)F)c1 [fragment 31, 2,4-Dinitrophenyl 3,5-bis(trifluoromethyl)benzoate]
isoTOP-ABPP reactivity ratio at lysine Q9UBT2_K409 ([1]; 231 sol): 6.2

SMILES: Cn1cc(CC(=O)Oc2ccc([N+](=O)[O-])cc2[N+](=O)[O-])c2ccccc21 [fragment 32, 2,4-Dinitrophenyl 2-(1-methyl-1H-indol-3-yl)acetate]
isoTOP-ABPP reactivity ratio at lysine Q9Y4K4_K49 [3]: 5.3

SMILES: O=C(CCc1coc2cc(F)ccc2c1=O)Oc1ccc([N+](=O)[O-])cc1[N+](=O)[O-] [fragment 36, 2,4-Dinitrophenyl 3-(7-fluoro-4-oxo-4H-chromen-3-yl)propanoate]
isoTOP-ABPP ratio (R) at liganded lysine Q9UBT2_K409 ([1]; sol, 231): 3.6 | isoTOP-ABPP ratio (R) at liganded lysine Q14914_K194 ([2]; 50 uM, in vitro, sol, 231): 1.7

SMILES: O=C(Oc1ccc([N+](=O)[O-])cc1[N+](=O)[O-])c1ccc(Oc2ccccc2)cc1 [fragment 39, 2,4-Dinitrophenyl 4-phenoxybenzoate]
isoTOP-ABPP ratio (R) at liganded lysine P13726_K279 (F3 Tissue factor): 1.8

SMILES: CC(=O)Oc1ccc([N+](=O)[O-])cc1[N+](=O)[O-] [fragment 43, 2,4-Dinitrophenyl acetate]
isoTOP-ABPP ratio (R) at liganded lysine P13726_K279 (F3 Tissue factor): 1.1

SMILES: N#Cc1ccc(C(=O)Oc2ccc([N+](=O)[O-])cc2[N+](=O)[O-])cc1 [fragment 44, 2,4-Dinitrophenyl 4-cyanobenzoate]
isoTOP-ABPP ratio, lysine P13726_K279 (F3 Tissue factor; 50 uM_231_sol_in vitro): 1.1

SMILES: O=C(CCc1ccc2c(c1)OCO2)Oc1ccc([N+](=O)[O-])cc1[N+](=O)[O-] [fragment 45, 2,4-Dinitrophenyl 3-(benzo[d][1,3]dioxol-5-yl)propanoate]
isoTOP-ABPP ratio, lysine Q14914_K194 ([2]; 50 uM_231_sol_in vitro): 5.5 | isoTOP-ABPP ratio, lysine P13726_K279 (F3 Tissue factor; 50 uM_231_sol_in vitro): 4.2

isoTOP-ABPP ratio, lysine Q14914_K194 ([2]; 100 uM_231_sol_in vitro): 1.3
SMILES: COC(=O)NC(=NC(=O)OCC1c2ccccc2-c2ccccc21)n1cccn1 [fragment 49, N-Methoxycarbonyl-N′-9-fluorenylmethoxycarbonyl-pyrazole-1-carboxamidine]

isoTOP-ABPP ratio, lysine Q14914_K194 ([2]; 100 uM_231_sol_in vitro): 1.2 | isoTOP-ABPP ratio, lysine P13726_K279 (F3 Tissue factor; 100 uM_231_sol_in vitro): 1.0
SMILES: CC(C)(C)OC(=O)N=C(NC(=O)OC(C)(C)C)n1cccn1 [fragment 50, reference compound]

From patent US20210255193A1, “LYSINE REACTIVE PROBES AND USES THEREOF” (The Scripps Research Institute, priority 2017, published 2021)
